# Results taken from paper PMC7759686, “Pharmacokinetics and Immunological Effects of Romidepsin in Rhesus Macaques” (Frontiers in Immunology, 2020).
# Experiments:
# [1] = tested on: H3 and H4 histone acetylation in peripheral CD4+ and CD8+ T cells; assay: Histone acetylation assay (flow cytometry); format: in vivo, rhesus macaques (Macaca mulatta); details: 7 mg/m^2 4-h IV infusion
# Method: The efficacy of RMD treatment was assessed by monitoring histone acetylation of frozen PBMCs: at the baseline, 6 h postinfusion, and 1, 2, and 5 days postinfusion, using a flow-cytometrical method, as described ([41]). Briefly, separated PBMCs were stained for surface markers for 20 min with: CD3-APC-Cy7 (SP34-2), CD4-V500 (L200), CD8-PE (SK1), CD14-BV570 (M5E2) (BioLegend, San Diego, CA), CD28-PE-CF594 (CD28.2), CD69-BV421 (FN50), CD95-PE-Cy5 (DX2), PD-1-PE-Cy7 (EH12.2H7) (BioLegend); all antibodies were from BD Biosciences, unless otherwise stated. PBMCs were then lysed with PhosFlow Lyse/Fix buffer (BD Biosciences) for 30 min and permeabilized with Perm Buffer [0.4% Triton X-100 in PBA (Sigma)] for 10 min, followed by washing. Permeabilized PBMCs were stained with the following antibodies for intracellular markers: Ac-H4 (3HH4-2C2) (Active Motif, Carlsbad, CA, USA) and Ki-67-Alexa Flour 647 (BD Biosciences). Ac-H4 recognizes motifs on histones H3 and H4 and was conjugated to FITC using Zenon reagent kit (Invitrogen, Carlsbad, CA). Stained PBMCs were then washed, fixed with BD Stabilizing Fixative (BD Biosciences), and acquired with a LSR-II flow cytometer. Data were analyzed with FlowJo software.
# [2] = tested on: CD4+ and CD8+ T cells of PBMCs; assay: In vitro RMD impact on homing markers of PBMCs; format: cell-based, rhesus macaques; details: for CCR5 expression on CD8+ T cells: untreated 7%; for CCR4 expression on CD8+ T cells: baseline 6%, untreated 29%; for α4β7 expression on CD8+ T cells: baseline 7%; for CCR9 expression on CD4+ T cells: baseline 2%; for CCR9 expression on CD4+ T cells / CCR9 expression on CD8+ T cells: untreated 3%
# Method: To assess the RMD impact on the expression of cellular and homing markers, fresh PBMCs collected from 3 SIV-naïve RMs were subjected to either no RMD treatment or escalating doses of RMD (2, 10, and 20 ng/ml). The PBMCs were incubated with RMD in RPMI1640 supplemented with 1% Penicillin/Streptomycin, 1% HEPES buffer, 1% L-glutamine, and 5% heat-inactivated bovine calf serum for 0, 1, 2, or 5 days. PBMCs were then stained with CD3-V500, CD4-Alexa Flour 700 (L200), CD8-PE-CF594, CCR4-PE-Cy7 (1G1), CCR5-APC (3AP), CCR7-PE (3D12), CCR9-FITC (112509) (R&D Systems, Minneapolis, MN, USA), β7-PE-Cy5 (FIB504), and LIVE/DEAD Fixable Blue Dead Cell Stain Kit (Thermo Fisher Scientific); all antibodies were from BD Biosciences unless otherwise noted. Stained PBMCs were acquired on a LSR-II and data were analyzed with FlowJo software (TreeStar).
# CD8+ T cells = assay: T lymphocyte functional assay (PMA/ionomycin stimulation, flow cytometry); format: in vivo, rhesus macaques (Macaca mulatta)
# Method: To simplify the complication of RMD treatment and SIV infection, it was vital to assess the impact of RMD administration on the T-cell function, particularly on the cellular immune responses on uninfected RMs. Due to the incapability to assess the SIV-specific immune responses, the overall cytotoxic capacity of lymphocytes in the blood was assessed as follows. Frozen PBMCs were thawed, counted, and were either unstimulated or stimulated with PMA and ionomycin (Sigma, St. Louis, MO). PBMCs were stained with the following antibodies: CD3-V500 (SP34-2), CD4-APC (L200), CD8-PE-CF594 (RPA-T8), CD107a-APC-Cy7 (H4A3), Granzyme A-PerCP/Cy5.5 (CB9) (BioLegend), Granzyme B-Alexa Flour 700 (GB11), Granzyme K-FITC (GM6C3) (Santa Cruz Biotechnology, Dallas, TX), IFN-γ-FITC (4S.B3), and Perforin-PE (B-D48) (BioLegend); antibodies were from BD Biosciences unless otherwise noted. Stained PBMCs were then acquired on an LSR-II flow cytometer. Data were analyzed using FlowJo software (Treestar).
# Previous studies reported conflicting data as to whether the functionality of CTLs is diminished by RMD administration ([41], [64]). Therefore, we performed functional assays on lymphocytes collected from superficial and mesenteric LNs and intestinal resections, focusing on the overall expression of the surrogate killing marker CD107a, along with granzymes A, B, and K, IFN-γ, and perforin with PMA and ionomycin stimulation ( Figure 11 ).
# HIV = details: cited from earlier work
# Description: Because we measured the prodrug form of RMD, it is possible that the maintained concentrations are due to either greater distribution to the tissue compartments, reduced conversion of the RMD to the active, reduced form, trapping of RMD between the extracellular and interstitial spaces, or a combination of these. As ...
# [3] = intestine, 2 days postinfusion, pretreatment 2%
# [4] = mesenteric LN, 1 day postinfusion, pretreatment 2%
# [5] = superficial LN, 2 days postinfusion, pretreatment 1%
# [6] = superficial LN, 2 days postinfusion, pretreatment 4%
compound,measurement,setting,value
"C/C=C1\NC(=O)[C@H]2CSSCC/C=C/[C@H](CC(=O)N[C@H](C(C)C)C(=O)N2)OC(=O)[C@H](C(C)C)NC1=O [RMD, romidepsin]",time of return of histone acetylation to near baseline level,"[1]; CD4+ and CD8+ T cells, all RMs",≤ 5 days postinfusion
same,time of peak H3/H4 histone acetylation in blood CD4+ and CD8+ T cells,[1]; third RM (RM33),1 day postinfusion
same,time of peak H3/H4 histone acetylation in blood CD4+ and CD8+ T cells,[1]; two of three RMs,6 h postinfusion
same,CCR5 expression on CD4+ T cells,"[2]; 2 ng/ml RMD, day 5, baseline 3%, untreated 2%, p > 0.05",1%
same,CCR5 expression on CD8+ T cells,"[2]; 2 ng/ml RMD, day 5, baseline 4%, p > 0.05",59%
same,CCR4 expression on CD8+ T cells,"[2]; 2 ng/ml RMD, day 5, p > 0.05",73%
same,α4β7 expression on CD8+ T cells,"[2]; 2 ng/ml RMD, day 5, p > 0.05",59%
same,CCR7 expression on CD8+ T cells,"[2]; 10 ng/ml RMD, day 1 (peak), baseline 3%",6%
same,α4β7 expression on CD4+ T cells,"[2]; 10 ng/ml RMD, day 1, baseline 8%",9%
same,α4β7 expression on CD4+ T cells,"[2]; 10 ng/ml RMD, day 2, baseline 8%",16%
same,CCR9 expression on CD4+ T cells,"[2]; 10 ng/ml RMD, day 5 (peak), p > 0.05",14%
same,CCR5 expression on CD4+ T cells,"[2]; 10 ng/ml RMD, day 5, baseline 3%, untreated 2%, p > 0.05",< 1%
same,CCR9 expression on CD8+ T cells,"[2]; 10 ng/ml RMD, day 5, baseline 4%, p > 0.05",8%
same,CCR5 expression on CD8+ T cells,"[2]; 10 ng/ml RMD, day 5, baseline 4%, p < 0.05",93%
same,CCR4 expression on CD8+ T cells,"[2]; 10 ng/ml RMD, day 5, p < 0.05",93%
same,α4β7 expression on CD8+ T cells,"[2]; 10 ng/ml RMD, day 5, p < 0.05",95%
same,α4β7 expression on CD4+ T cells,"[2]; 10 ng/ml RMD, day 5, untreated 7.5%",2%
same,CCR7 expression on CD8+ T cells,"[2]; 20 ng/ml RMD, day 1 (peak), baseline 3%",6.2%
same,α4β7 expression on CD4+ T cells,"[2]; 20 ng/ml RMD, day 1, baseline 8%",10%
same,α4β7 expression on CD4+ T cells,"[2]; 20 ng/ml RMD, day 2, baseline 8%",15%
same,CCR9 expression on CD4+ T cells,"[2]; 20 ng/ml RMD, day 5 (peak), p > 0.05",13%
same,CCR7 expression on CD4+ T cells,"[2]; 20 ng/ml RMD, day 5 (peak), baseline 4%, untreated 2%, p > 0.05",9%
same,CCR5 expression on CD4+ T cells,"[2]; 20 ng/ml RMD, day 5, baseline 3%, untreated 2%, p > 0.05",< 1%
same,CCR9 expression on CD8+ T cells,"[2]; 20 ng/ml RMD, day 5, baseline 4%, p > 0.05",10%
same,CCR5 expression on CD8+ T cells,"[2]; 20 ng/ml RMD, day 5, baseline 4%, p < 0.05",90%
same,CCR4 expression on CD8+ T cells,"[2]; 20 ng/ml RMD, day 5, p < 0.05",90%
same,α4β7 expression on CD8+ T cells,"[2]; 20 ng/ml RMD, day 5, p < 0.05",91%
same,CCR7 expression on CD8+ T cells,"[2]; 20 ng/ml RMD, day 5, untreated 2%",5%
same,α4β7 expression on CD4+ T cells,"[2]; 20 ng/ml RMD, day 5, untreated 7.5%",3%
same,CCR4 expression on CD4+ T cells,"[2]; 2, 10, 20 ng/ml RMD, up to day 5",mostly unchanged
same,Granzyme K expression in CD8+ T cells,"CD8+ T cells; intestine, 2 days postinfusion, pretreatment 1%",< 1%
same,CD107a expression in CD8+ T cells,CD8+ T cells; [3],1%
same,Granzyme A expression in CD8+ T cells,CD8+ T cells; [3],< 1%
same,Perforin expression in CD8+ T cells,"CD8+ T cells; intestines, 2 days postinfusion, pretreatment 1%",< 1%
same,IFN-γ expression in CD8+ T cells,"CD8+ T cells; intestines, 2 days postinfusion, pretreatment 2%",1%
same,Granzyme B expression in CD8+ T cells,"CD8+ T cells; intestines, 2 days postinfusion, pretreatment 11%",3%
same,CD107a expression in CD8+ T cells,"CD8+ T cells; mesenteric LN, 1 day postinfusion, pretreatment 1%",< 1%
same,Granzyme K expression in CD8+ T cells,CD8+ T cells; [4],< 1%
same,Perforin expression in CD8+ T cells,CD8+ T cells; [4],< 1%
same,IFN-γ expression in CD8+ T cells,"CD8+ T cells; mesenteric LN, 1 day postinfusion, pretreatment 5%",3%
same,Granzyme B expression in CD8+ T cells,"CD8+ T cells; mesenteric LN, 2 days postinfusion, pretreatment 5%",2%
same,Granzyme A expression in CD8+ T cells,"CD8+ T cells; mesenteric LNs, 1 day postinfusion, pretreatment 1%",< 1%
same,CD107a expression in CD8+ T cells,CD8+ T cells; [5],< 1%
same,Granzyme K expression in CD8+ T cells,CD8+ T cells; [5],< 1%
same,Perforin expression in CD8+ T cells,CD8+ T cells; [5],< 1%
same,Granzyme B expression in CD8+ T cells,CD8+ T cells; [6],1%
same,IFN-γ expression in CD8+ T cells,CD8+ T cells; [6],1%
same,Granzyme A expression in CD8+ T cells,"CD8+ T cells; superficial LNs, 2 days postinfusion, pretreatment 1%",< 1%
same,concentration found to readily reactivate HIV in vitro,HIV,5 nM
